“Also recorded” adds a separate entry of the source. Where two headings read alike, the source gives them in different places.
Assays:
Format in all cases: cell-based
[1] = system: h293 cells; assay: ATP levels by CellTiterGlo in h293 cells (inhibition assays)
Procedure: Drugs. All drugs were obtained from Sigma except diphenhydramine (purchased commercially as 25 mg allergy tablets) and famotidine (purchased commercially as 10 mg acid controller tablets). All compounds were dissolved in ultrapure water except quinine, which was re-suspended in ethanol. Rotenone was prepared as a concentrated solution in 100% DMSO, then diluted to a working stock (125 μM) in water (final concentration 2.5 μM). 2-DG was used at a final concentration of 20 mM. Diphenhydramine and famotidine were crushed by mortar and pestle, re-suspended in H2O and rotated at room temperature for 1 h. Insoluble material (e.g., cellulose) was removed by centrifugation. […] Cigar smoke was generated from commercially available Backwoods brand containing nicotine.
Cell culture. The following immortalized cells were obtained from the American Tissue Culture Collection: H293 kidney epithelial cells, HDFs (human diploid fibroblasts immortalized by telomerase expression), and U549 lung carcinoma cells. Cells were maintained in DMEM (Fisher Scientific) supplemented with 10% fetal bovine serum (FBS; Atlas Biologicals, Fort Collins, Colo.). DMEM media contained high glucose (25 mM) and the standard amino acids as carbon sources. Cultures were maintained in a 37° C. water jacketed incubator with 5% CO2. When needed cells were removed from the plate using trypsin. It is important to note that FBS and many commercial preparations of trypsin contain glucose. Unless indicated otherwise, after removal, cells were pelleted by centrifugation (2K 4 min room temperature), aspirated, and re-suspended in the desired media. Other media used in this study were DMEM no glu (Fisher Scientific), which is identical to DMEM except it lacks glucose. L-15 media (Fisher Scientific) contains amino acids but replaces glucose with 5 mM galactose. It also lacks sodium bicarbonate (NaHCO3), which was added to the same concentration as in DMEM (44 mM) in all experiments except FIGS. 4A and 4B. Its presence is essential to buffer the media and prevent its acidification in the CO2 incubator. A DMEM type media lacking sodium bicarbonate was also generated using individual components obtained from Fisher Scientific and Sigma. This media was used for FIG. 4D, where its pH was varied by the addition of 500 mM Hepes pH 7-10 (25 mM final concentration).
Inhibition assays. In general, short term immediate effects of the indicated drugs on ATP levels were analyzed by removing growing cells from a p100 mm plate using trypsin, washing with PBS, and re-suspending in the indicated media. After counting using a hemocytometer, 25-50k cells in […] media were distributed in a 96 well white flat bottom, non-treated polystyrene assay plate. In some cases, media was supplemented by the addition of glucose (20 mM final). The plate was typically incubated for 30 min at 37° C. in a CO2 incubator to allow metabolic pathways to adapt to the media. Drugs when then added in the order and at the concentration indicated for each figure, followed by shaking (700 RPM 10 sec), and returned to the incubator. Incubation times were generally between 1 and 2 h so that direct and immediate effects on ATP production could be evaluated. In most cases samples were run in duplicate or triplicate and the standard deviation determined. FIG. 1B is a more traditional drug analysis, in that cells were seeded in a tissue culture treated 96-well plate, allowed to attach overnight, then treated with 10 μL CellTiterBlue resazurin reagent (Promega) to determine effects on viability. Plates were shaken and incubated in the dark for 1-4 h, followed by excitation at 560 nm and determination of fluorescence emitted at 590 nm using a Tecan Safire plate reader. […] Luciferase activity alone (FIG. 1C) was measured by adding 10 CellTiterGlo reagent to 100 μL DMEM media in the absence of cells. […] The luminescence was determined immediately and at later times as described above.

[2] = system: Human Diploid Fibroblasts (HDFs); assay: ATP levels by CellTiterGlo in Human Diploid Fibroblasts; conditions: HDFs in DMEM, in the presence of 2-DG
Procedure: Cell culture. […] Cells were maintained in DMEM (Fisher Scientific) supplemented with 10% fetal bovine serum (FBS; Atlas Biologicals, Fort Collins, Colo.). DMEM media contained high glucose (25 mM) and the standard amino acids as carbon sources. Cultures were maintained in a 37° C. water jacketed incubator with 5% CO2. When needed cells were removed from the plate using trypsin. […] Unless indicated otherwise, after removal, cells were pelleted by centrifugation (2K 4 min room temperature), aspirated, and re-suspended in the desired media.
Inhibition assays. In general, short term immediate effects of the indicated drugs on ATP levels were analyzed by removing growing cells from a p100 mm plate using trypsin, washing with PBS, and re-suspending in the indicated media. After counting using a hemocytometer, 25-50k cells in 100 mL media were distributed in a 96 well white flat bottom, non-treated polystyrene assay plate. In some cases, media was supplemented by the addition of glucose (20 mM final). […] Incubation times were generally between 1 and 2 h so that direct and immediate effects on ATP production could be evaluated. In most cases samples were run in duplicate or triplicate and the standard deviation determined. […] The luminescence was determined immediately and at later times as described above.

[3] = system: Red blood cells; assay: ATP levels by CellTiterGlo in red blood cells; conditions: RBCs in DMEM containing 5 mM glucose
[4] = h293 cells in DMEM containing amino acids but lacking glucose, drug alone
[5] = h293 cells in DMEM, in the presence of 2-DG (forced TCA/ETC), drug 2 h
[6] = h293 cells in DMEM, in the presence of rotenone (forced glycolysis), drug 2 h
[7] = h293 cells in L-15 media (galactose, plus NaHCO3), no glucose, drug titration
[8] = h293 cells in L-15 media plus glucose, drug titration
[9] = h293 cells in DMEM (glucose and amino acids), drug alone, short exposure (2 h), no 2-DG or rotenone
[10] = h293 cells in L-15 media lacking NaHCO3 (acidified), 37° C. CO2 incubator
[11] = h293 cells in DMEM no glucose (amino acids only), metabolic inhibitors for 1 h
[12] = h293 cells in DMEM with glucose, metabolic inhibitors for 1 h (2-DG 20 mM, rotenone 2.5 μM)
[13] = h293 cells in L-15 media (galactose instead of glucose), metabolic inhibitors

SMILES: CCN(CCO)CCCC(C)Nc1ccnc2cc(Cl)ccc12 (stereo not shown) [HCQ, hydroxychloroquine]
- effect on ATP production [1, 4]: inhibited ATP production
- effect on ATP levels [1, 5]: synergistic effect that dramatically reduced ATP production
- effect on ATP levels [1, 6]: no effect on ATP levels
- effect on ATP production [1, 7]: inhibited ATP production; also recorded: very sensitive
- effect on ATP production [1, 8]: prevented inhibition

SMILES: CCN(CC)CCCC(C)Nc1ccnc2cc(Cl)ccc12 (stereo not shown) [CQ, chloroquine]
- effect on ATP levels [1, 9]: no apparent effect on ATP levels
- effect on ATP production [1, 4]: inhibited ATP production
- effect on ATP levels ([1]; h293 cells in DMEM no glucose with glucose added back): minimal effect on ATP levels
- effect on ATP levels [1, 5]: markedly reduced; also recorded: synergistic effect that dramatically reduced ATP production
- effect on ATP levels [1, 6]: no effect on ATP levels
- effect on ATP production [1, 7]: inhibited ATP production; also recorded: very sensitive
- effect on ATP production [1, 10]: no CQ inhibition
- effect on ATP production [1, 8]: prevented inhibition
- time course of inhibition of ATP production ([1]; h293 cells in L-15 media plus sodium bicarbonate, 250 μM CQ): increased dramatically over time
- ATP production after order of addition ([1]; h293 cells in media containing glucose treated with CQ, then 2-DG added): re-established inhibition of ATP production; also recorded: CQ inhibition is revealed in the presence of 2-DG
- ATP levels after order of addition ([1]; h293 cells pre-incubated with CQ 2 h in media lacking glucose, then glucose added for 1 h): re-established ATP levels; also recorded: glucose overcomes CQ inhibition
- pH dependency of inhibition of ATP production ([1]; h293 cells, 1 h in DMEM type media lacking NaHCO3 adjusted to pH 7 to 10 with 25 mM Hepes, then L-15): dramatic increase in CQ inhibition with increasing pH; also recorded: Increasing media pH increases ability of CQ to inhibit ATP production
- effect on ATP levels (CellTiterGlo) ([1]; h293 cells, overnight titration, same cells as CellTiterBlue): clear CQ dependent decrease
- effect on ATP levels [2]: confirmed
- effect on ATP production via glycolysis [3]: no effect on ATP production

SMILES: NC(N)=Nc1nc(CSCCC(N)=NS(N)(=O)=O)cs1 [famotidine]
- effect on ATP levels [1, 9]: no effect on ATP production
- effect on ATP levels [1, 5]: no effect on ATP production

SMILES: CN1CCCC1c1cccnc1 (stereo not shown) [nicotine]
- effect on ATP levels [1]: specificity for inhibiting mitochondrial ATP production

SMILES: CN(C)CCOC(c1ccccc1)c1ccccc1 [diphenhydramine]
- effect on ATP levels [1, 9]: minimal effect on ATP production
- effect on ATP levels [1, 5]: strongly inhibited; also recorded: specifically inhibited mitochondrial ATP production

SMILES: O=CC[C@@H](O)[C@H](O)[C@H](O)CO [2-DG, 2-deoxy-D-glucose]
- effect on ATP production [1, 11]: significant inhibition
- effect on ATP levels [1, 12]: minimal effect on ATP levels
- effect on ATP production [1, 13]: partially inhibited
- effect on ATP production [1, 10]: sensitive

SMILES: C=C[C@H]1C[N@@]2CC[C@H]1C[C@H]2[C@H](O)c1ccnc2ccc(OC)cc12 [Quinine, quinine]
- effect on ATP levels [1, 5]: much more dramatic in the presence of 2-DG

SMILES: C=C(C)[C@H]1Cc2c(ccc3c2O[C@@H]2COc4cc(OC)c(OC)cc4[C@@H]2C3=O)O1 [rotenone]
- effect on ATP production [1, 11]: complete inhibition
- effect on ATP levels [1, 12]: no effect
- effect on ATP production [1, 13]: completely inhibited
- effect on ATP production [1, 10]: sensitive

— patent US20220031719A1, “ANTIVIRAL THERAPEUTIC DRUG COMBINATIONS” (THE UNIVERSITY OF TULSA, priority 2020, published 2022)
